{"source": "ChEMBL document CHEMBL4004849", "about": "“Tetrazolylmethyl quinolines: Design, docking studies, synthesis, anticancer and antifungal analyses” (2017)", "type_in_all_cases": "functional", "key": {"OVCAR-5": {"tested_on": "OVCAR-5", "assay": "Growth inhibition of human OVCAR5 cells at 10^-5 M incubated for 48 hrs by sulforhodamine B assay relative to control"}, "RXF 393": {"tested_on": "RXF 393", "assay": "Growth inhibition of human RXF393 cells at 10^-5 M incubated for 48 hrs by sulforhodamine B assay relative to control"}, "SN12C": {"tested_on": "SN12C", "assay": "Growth inhibition of human SN12C cells at 10^-5 M incubated for 48 hrs by sulforhodamine B assay relative to control"}, "U-251": {"tested_on": "U-251", "assay": "Growth inhibition of human U251 cells at 10^-5 M incubated for 48 hrs by sulforhodamine B assay relative to control"}, "SK-MEL-28": {"tested_on": "SK-MEL-28", "assay": "Growth inhibition of human SK-MEL-28 cells at 10^-5 M incubated for 48 hrs by sulforhodamine B assay relative to control"}, "SW-620": {"tested_on": "SW-620", "assay": "Growth inhibition of human SW620 cells at 10^-5 M incubated for 48 hrs by sulforhodamine B assay relative to control"}, "COLO 205": {"tested_on": "COLO 205", "assay": "Growth inhibition of human COLO205 cells at 10^-5 M incubated for 48 hrs by sulforhodamine B assay relative to control"}, "SF-268": {"tested_on": "SF-268", "assay": "Growth inhibition of human SF268 cells at 10^-5 M incubated for 48 hrs by sulforhodamine B assay relative to control"}, "HCC 2998": {"tested_on": "HCC 2998", "assay": "Growth inhibition of human HCC2998 cells at 10^-5 M incubated for 48 hrs by sulforhodamine B assay relative to control"}, "LOX IMVI": {"tested_on": "LOX IMVI", "assay": "Growth inhibition of human LOXIMVI cells at 10^-5 M incubated for 48 hrs by sulforhodamine B assay relative to control"}, "K562": {"tested_on": "K562", "assay": "Growth inhibition of human K562 cells at 10^-5 M incubated for 48 hrs by sulforhodamine B assay relative to control"}, "MCF7": {"tested_on": "MCF7", "assay": "Growth inhibition of human MCF7 cells at 10^-5 M incubated for 48 hrs by sulforhodamine B assay relative to control"}, "Candida albicans": {"tested_on": "Candida albicans", "assay": "Antifungal activity against Candida albicans after 24 hrs by serial dilution method"}, "A549": {"tested_on": "A549", "assay": "Growth inhibition of human A549/ATCC cells at 10^-5 M incubated for 48 hrs by sulforhodamine B assay relative to control"}, "Hs-578T": {"tested_on": "Hs-578T", "assay": "Growth inhibition of human Hs 578T cells at 10^-5 M incubated for 48 hrs by sulforhodamine B assay relative to control"}, "SNB-19": {"tested_on": "SNB-19", "assay": "Growth inhibition of human SNB19 cells at 10^-5 M incubated for 48 hrs by sulforhodamine B assay relative to control"}, "MOLT-4": {"tested_on": "MOLT-4", "assay": "Growth inhibition of human MOLT4 cells at 10^-5 M incubated for 48 hrs by sulforhodamine B assay relative to control"}, "UO-31": {"tested_on": "UO-31", "assay": "Growth inhibition of human UO31 cells at 10^-5 M incubated for 48 hrs by sulforhodamine B assay relative to control"}, "KM12": {"tested_on": "KM12", "assay": "Growth inhibition of human KM12 cells at 10^-5 M incubated for 48 hrs by sulforhodamine B assay relative to control"}, "TK-10": {"tested_on": "TK-10", "assay": "Growth inhibition of human TK10 cells at 10^-5 M incubated for 48 hrs by sulforhodamine B assay relative to control"}, "ACHN": {"tested_on": "ACHN", "assay": "Growth inhibition of human ACHN cells at 10^-5 M incubated for 48 hrs by sulforhodamine B assay relative to control"}, "UACC-62": {"tested_on": "UACC-62", "assay": "Growth inhibition of human UACC62 cells at 10^-5 M incubated for 48 hrs by sulforhodamine B assay relative to control"}, "NCI-H226": {"tested_on": "NCI-H226", "assay": "Growth inhibition of human NCI-H226 cells at 10^-5 M incubated for 48 hrs by sulforhodamine B assay relative to control"}, "EKVX": {"tested_on": "EKVX", "assay": "Growth inhibition of human EKVX cells at 10^-5 M incubated for 48 hrs by sulforhodamine B assay relative to control"}, "UACC-257": {"tested_on": "UACC-257", "assay": "Growth inhibition of human UACC257 cells at 10^-5 M incubated for 48 hrs by sulforhodamine B assay relative to control"}, "OVCAR-4": {"tested_on": "OVCAR-4", "assay": "Growth inhibition of human OVCAR4 cells at 10^-5 M incubated for 48 hrs by sulforhodamine B assay relative to control"}, "OVCAR-8": {"tested_on": "OVCAR-8", "assay": "Growth inhibition of human OVCAR8 cells at 10^-5 M incubated for 48 hrs by sulforhodamine B assay relative to control"}, "SK-MEL-5": {"tested_on": "SK-MEL-5", "assay": "Growth inhibition of human SK-MEL-5 cells at 10^-5 M incubated for 48 hrs by sulforhodamine B assay relative to control"}, "OVCAR-3": {"tested_on": "OVCAR-3", "assay": "Growth inhibition of human OVCAR3 cells at 10^-5 M incubated for 48 hrs by sulforhodamine B assay relative to control"}, "786-0": {"tested_on": "786-0", "assay": "Growth inhibition of human 786-0 cells at 10^-5 M incubated for 48 hrs by sulforhodamine B assay relative to control"}, "SNB-75": {"tested_on": "SNB-75", "assay": "Growth inhibition of human SNB75 cells at 10^-5 M incubated for 48 hrs by sulforhodamine B assay relative to control"}, "Aspergillus fumigatus [1]": {"tested_on": "Aspergillus fumigatus", "assay": "Antifungal activity against Aspergillus fumigatus at 100 ug/ml by disc diffusion method", "details": "read-out: IZ"}, "NCI-H23": {"tested_on": "NCI-H23", "assay": "Growth inhibition of human NCI-H23 cells at 10^-5 M incubated for 48 hrs by sulforhodamine B assay relative to control"}, "SR": {"tested_on": "SR", "assay": "Growth inhibition of human SR cells at 10^-5 M incubated for 48 hrs by sulforhodamine B assay relative to control"}, "Aspergillus fumigatus [2]": {"tested_on": "Aspergillus fumigatus", "assay": "Antifungal activity against Aspergillus fumigatus after 24 hrs by serial dilution method"}, "T47D": {"tested_on": "T47D", "assay": "Growth inhibition of human T47D cells at 10^-5 M incubated for 48 hrs by sulforhodamine B assay relative to control"}, "MDA-MB-231": {"tested_on": "MDA-MB-231", "assay": "Growth inhibition of human MDA-MB-231/ATCC cells at 10^-5 M incubated for 48 hrs by sulforhodamine B assay relative to control"}, "HT-29": {"tested_on": "HT-29", "assay": "Growth inhibition of human HT-29 cells at 10^-5 M incubated for 48 hrs by sulforhodamine B assay relative to control"}, "BT-549": {"tested_on": "BT-549", "assay": "Growth inhibition of human BT549 cells at 10^-5 M incubated for 48 hrs by sulforhodamine B assay relative to control"}, "SF-295": {"tested_on": "SF-295", "assay": "Growth inhibition of human SF295 cells at 10^-5 M incubated for 48 hrs by sulforhodamine B assay relative to control"}, "SK-OV-3": {"tested_on": "SK-OV-3", "assay": "Growth inhibition of human SKOV3 cells at 10^-5 M incubated for 48 hrs by sulforhodamine B assay relative to control"}, "SF-539": {"tested_on": "SF-539", "assay": "Growth inhibition of human SF539 cells at 10^-5 M incubated for 48 hrs by sulforhodamine B assay relative to control"}, "M14": {"tested_on": "M14", "assay": "Growth inhibition of human M14 cells at 10^-5 M incubated for 48 hrs by sulforhodamine B assay relative to control"}, "HL-60(TB)": {"tested_on": "HL-60(TB)", "assay": "Growth inhibition of human HL-60(TB) cells at 10^-5 M incubated for 48 hrs by sulforhodamine B assay relative to control"}, "HCT-15": {"tested_on": "HCT-15", "assay": "Growth inhibition of human HCT15 cells at 10^-5 M incubated for 48 hrs by sulforhodamine B assay relative to control"}}, "note": "The source made the active and inactive calls. The calls are words filed in the database; no cut-off is given here.", "data": [{"smiles": "Fc1ccc2nc(Cl)c(Cn3nnc(CSc4ccccc4)n3)cc2c1", "values": [{"measurement": "growth inhibition (GI)", "setting": "OVCAR-5", "result": "Active"}, {"measurement": "growth inhibition (GI)", "setting": "RXF 393", "result": "Active"}, {"measurement": "growth inhibition (GI)", "setting": "SN12C", "result": "Active"}, {"measurement": "growth inhibition (GI)", "setting": "U-251", "result": "Active"}, {"measurement": "growth inhibition (GI)", "setting": "SK-MEL-28", "result": "Active"}, {"measurement": "growth inhibition (GI)", "setting": "SW-620", "result": "Active"}, {"measurement": "growth inhibition (GI)", "setting": "COLO 205", "result": "Active"}, {"measurement": "growth inhibition (GI)", "setting": "SF-268", "result": "Active"}, {"measurement": "growth inhibition (GI)", "setting": "HCC 2998", "result": "Active"}, {"measurement": "growth inhibition (GI)", "setting": "LOX IMVI", "result": "Active"}, {"measurement": "growth inhibition (GI)", "setting": "K562", "result": "Active"}, {"measurement": "growth inhibition (GI)", "setting": "MCF7", "result": "Active"}, {"measurement": "MIC", "setting": "Candida albicans", "result": 50, "unit": "µg/mL"}, {"measurement": "growth inhibition (GI)", "setting": "A549", "result": "Active"}, {"measurement": "growth inhibition (GI)", "setting": "Hs-578T", "result": "Active"}, {"measurement": "growth inhibition (GI)", "setting": "SNB-19", "result": "Active"}, {"measurement": "growth inhibition (GI)", "setting": "MOLT-4", "result": "Active"}, {"measurement": "growth inhibition (GI)", "setting": "UO-31", "result": "Active"}, {"measurement": "growth inhibition (GI)", "setting": "KM12", "result": "Active"}, {"measurement": "growth inhibition (GI)", "setting": "TK-10", "result": "Active"}, {"measurement": "growth inhibition (GI)", "setting": "ACHN", "result": "Active"}, {"measurement": "growth inhibition (GI)", "setting": "UACC-62", "result": "Active"}, {"measurement": "growth inhibition (GI)", "setting": "NCI-H226", "result": "Active"}, {"measurement": "growth inhibition (GI)", "setting": "EKVX", "result": "Active"}, {"measurement": "growth inhibition (GI)", "setting": "UACC-257", "result": "Active"}, {"measurement": "growth inhibition (GI)", "setting": "OVCAR-4", "result": "Active"}, {"measurement": "growth inhibition (GI)", "setting": "OVCAR-8", "result": "Active"}, {"measurement": "growth inhibition (GI)", "setting": "SK-MEL-5", "result": "Active"}, {"measurement": "growth inhibition (GI)", "setting": "OVCAR-3", "result": "Active"}, {"measurement": "growth inhibition (GI)", "setting": "786-0", "result": "Active"}, {"measurement": "growth inhibition (GI)", "setting": "SNB-75", "result": "Active"}, {"measurement": "zone of inhibition at 100 µg/mL", "setting": "Aspergillus fumigatus [1]", "result": 13, "unit": "mm"}, {"measurement": "growth inhibition (GI)", "setting": "NCI-H23", "result": "Active"}, {"measurement": "growth inhibition (GI)", "setting": "SR", "result": "Active"}, {"measurement": "MIC", "setting": "Aspergillus fumigatus [2]", "result": 2.5, "unit": "µg/mL"}, {"measurement": "growth inhibition (GI)", "setting": "T47D", "result": "Active"}, {"measurement": "growth inhibition (GI)", "setting": "MDA-MB-231", "result": "Active"}, {"measurement": "growth inhibition (GI)", "setting": "HT-29", "result": "Active"}, {"measurement": "growth inhibition (GI)", "setting": "BT-549", "result": "Active"}, {"measurement": "growth inhibition (GI)", "setting": "SF-295", "result": "Active"}, {"measurement": "growth inhibition (GI)", "setting": "SK-OV-3", "result": "Active"}, {"measurement": "growth inhibition (GI)", "setting": "SF-539", "result": "Active"}, {"measurement": "growth inhibition (GI)", "setting": "M14", "result": "Active"}, {"measurement": "growth inhibition (GI)", "setting": "HL-60(TB)", "result": "Active"}, {"measurement": "growth inhibition (GI)", "setting": "HCT-15", "result": "Active"}]}]}
